Assay results: patent US12643887B2, “Heterocyclic derivatives with cardiomyocyte proliferation activity for treatment of heart diseases” (Tongji University, priority 2019, dated 2026)

What was measured:
Assay type in all cases: biochemical
human CIT = target: T1, human CIT (Homo sapiens, UniProt O14578); experiment: CIT enzyme assay (ADP-Glo); conditions: ADP-Glo, ATP 5 μM; read-out: CIT IC50
T1 construct: Recombinant human CIT (1-499); GST (N); purchased SignalChem C52-11G; host or cells: Sf9 insect cells
T1 sequence (O14578 1-499): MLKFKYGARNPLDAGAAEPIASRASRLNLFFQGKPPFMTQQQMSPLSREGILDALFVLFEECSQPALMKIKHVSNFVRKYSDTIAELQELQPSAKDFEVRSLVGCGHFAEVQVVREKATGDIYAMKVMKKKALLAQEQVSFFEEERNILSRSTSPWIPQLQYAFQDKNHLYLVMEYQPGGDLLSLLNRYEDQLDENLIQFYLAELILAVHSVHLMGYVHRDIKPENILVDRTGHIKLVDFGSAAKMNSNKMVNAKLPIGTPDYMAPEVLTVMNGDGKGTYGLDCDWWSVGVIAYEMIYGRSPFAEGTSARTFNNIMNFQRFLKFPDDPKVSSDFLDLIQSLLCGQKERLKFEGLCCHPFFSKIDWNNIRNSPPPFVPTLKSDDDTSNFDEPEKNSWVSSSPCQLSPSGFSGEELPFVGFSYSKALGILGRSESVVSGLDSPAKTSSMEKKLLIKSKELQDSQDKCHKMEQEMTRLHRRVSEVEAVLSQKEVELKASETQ
Procedure: The ability of compounds to inhibit human CIT kinase activities was determined using a commercially available ADP-Glo™ Kinase Assay kit (Promega, Cat #V9102) according to the manufacturer's protocol.
(§1) Recombinant human CIT (1-499) (expressed in Sf9 insect cells with an N-terminal GST tag) was purchased from SignalChem (Cat #C52-11G). Recombinant full length human MBP (expressed in E. Coli cells with an N-terminal GST tag) was purchased from SignalChem (Cat #M42-54G). This assay, run in a 384-well plate format, is a generic method for measuring kinase activities using an ADP-Glo Kinase Assay Kit. The basic assay procedure involves two steps: (1) Enzymatic step: inhibitors are incubated with the kinase and then ATP (included in the ADP-Glo Kinase Assay Kit) and the MBP protein are added to start the enzymatic reaction; (2) Detection step: after the kinase reaction, first ADP-Glo™ Reagent is added to terminate the kinase reaction and deplete the remaining ATP. Second, the Kinase Detection Reagent is added to simultaneously convert ADP to ATP and allow the newly synthesized ATP to be measured using a luciferase/luciferin reaction. The light generated is measured using a luminometer.
(§2) Briefly, CIT (20 nM) in the enzymatic buffer solutions (40 mM Tris, pH 7.5, 20 mM MgCl2, 0.1 mg/ml BSA, 50 μM DTT) were mixed with various concentrations of inhibitors (dissolved in 100% DMSO). These solutions were incubated for 30 minutes at 25° C., and subsequently a mixture of substrate peptide and ATP was added with the final peptide and ATP concentrations at 0.05 mg/ml and 5 μM, respectively. The final reaction mixture of enzyme-substrate-ATP-compound was incubated for 90 minutes at 25° C.
(§3) Afterwards ADP-Glo™ Reagent was added and the mixture was incubated at 25° C. for 60 minutes. Then Kinase Detection Reagent was added, and the final mixture was incubated at 25° C. for 60 minutes. The luminescence signal of the final solution was measured on an Envision instrument (PerkinElmer). The percent (%) inhibition at each concentration of a compound is calculated relative to the luminescence signal in the Max and Min control wells contained within each assay plate. […] The concentrations and percent inhibition values for a test compound are plotted and the concentration of the compound required to achieve 50% inhibition (IC50) is determined with a four-parameter logistic dose response equation.

human HIPK2 = target: T2, human HIPK2 (Homo sapiens, UniProt Q9H2X6); experiment: HIPK2 enzyme assay (ADP-Glo); conditions: ADP-Glo, ATP 5 μM; read-out: HIPK2 IC50
T2 construct: Recombinant human HIPK2 (1-640); GST (N); purchased SignalChem H04-11BG; host or cells: Sf9 insect cells
T2 sequence (Q9H2X6 1-640): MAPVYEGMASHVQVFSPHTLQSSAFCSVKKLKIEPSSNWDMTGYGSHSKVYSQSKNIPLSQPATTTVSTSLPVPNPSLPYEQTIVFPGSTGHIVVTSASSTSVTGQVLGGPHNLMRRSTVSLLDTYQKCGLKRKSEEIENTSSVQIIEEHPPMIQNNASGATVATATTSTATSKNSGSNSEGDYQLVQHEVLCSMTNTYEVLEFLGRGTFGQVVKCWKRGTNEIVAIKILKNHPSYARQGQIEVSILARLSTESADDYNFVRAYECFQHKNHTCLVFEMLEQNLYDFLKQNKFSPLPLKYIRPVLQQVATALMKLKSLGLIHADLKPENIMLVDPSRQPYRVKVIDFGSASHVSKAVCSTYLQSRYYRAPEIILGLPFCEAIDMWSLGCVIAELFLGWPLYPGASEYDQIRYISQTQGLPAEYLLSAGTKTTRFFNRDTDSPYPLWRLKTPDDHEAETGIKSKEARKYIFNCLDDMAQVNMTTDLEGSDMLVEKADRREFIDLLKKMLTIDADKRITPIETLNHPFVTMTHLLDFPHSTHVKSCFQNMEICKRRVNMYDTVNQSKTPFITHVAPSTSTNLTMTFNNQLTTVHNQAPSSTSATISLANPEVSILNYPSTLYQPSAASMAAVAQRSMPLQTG
Summary of the method: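 GST-tagged HIPK2 (1-640) from Sf9, 1 nM, preincubated 30 min at 25° C with inhibitor in 40 mM Tris pH 7.5, 20 mM MgCl2. Reaction ran 90 min at 25° C with GST-MBP substrate at 0.05 mg/ml and 5 μM ATP. ADP-Glo luminescence; IC50 by four-parameter logistic fit.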

human CK2a2 (CSNK2a2) = target: T3, human CK2a2 (CSNK2a2) (Homo sapiens, UniProt P19784); experiment: CK2a2 (CSNK2a2) enzyme assay (ADP-Glo); conditions: ADP-Glo, ATP 15 μM; read-out: CK2 alpha 2 IC50
T3 construct: Recombinant human CK2a2 (CSNK2a2) (full length); GST (N); purchased SignalChem C71-10G; host or cells: Sf9 insect cells
T3 sequence (P19784 whole entry): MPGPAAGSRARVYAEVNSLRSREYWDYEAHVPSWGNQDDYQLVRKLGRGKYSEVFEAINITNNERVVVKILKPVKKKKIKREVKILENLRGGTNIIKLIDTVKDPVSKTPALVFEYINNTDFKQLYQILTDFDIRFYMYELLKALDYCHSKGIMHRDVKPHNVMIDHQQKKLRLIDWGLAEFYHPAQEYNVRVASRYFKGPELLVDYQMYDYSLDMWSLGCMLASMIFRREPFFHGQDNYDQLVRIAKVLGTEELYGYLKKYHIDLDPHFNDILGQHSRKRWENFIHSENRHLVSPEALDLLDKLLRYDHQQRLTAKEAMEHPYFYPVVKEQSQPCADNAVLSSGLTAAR
Procedure: 8. CK2a2 (CSNK2a2) Enzyme Assay
The ability of compounds to inhibit human CK2a2 (CSNK2a2) kinase activities was determined using a commercially available ADP-Glo™ Kinase Assay kit (Promega, Cat #V9102) according to the manufacturer's protocol.
as §1, with “CK2a2 (CSNK2a2) (full length)” for “CIT (1-499)”, “#C71-10G). CK2 substrate (sequence: […])” for “#C52-11G). Recombinant full length human MBP (expressed in E. Coli cells with an N-terminal GST tag)”, “#C08-58).” for “#M42-54G).”
as §2, with “Briefly, CK2a2 (CSNK2a2) (7” for “Briefly, CIT (20”, “at 0.04” for “at 0.05”, “and 15” for “and 5”
as §3

Structure (SMILES)	IC50 (human CIT) [nM]	IC50 (human HIPK2) [nM]	IC50 (human CK2a2 (CSNK2a2)) [nM]
Cn1cnc2ccc(/C=C3\N=C(Nc4ccccc4)NC3=O)cc21 [Example 46, (Z)-5-((1-methyl-1H-benzo[d]imidazol-6-yl)methylene)-2-(phenylamino)-3,5-dihydro-4H-imidazol-4-one]	100 to 1000	100 to 1000	< 100
O=C1NC(N(Cc2ccccc2)c2ccccc2)=N/C1=C\c1ccc2c(c1)OCO2 [Example 22, (Z)-5-(benzo[d][1,3]dioxol-5-ylmethylene)-2-(benzyl(phenyl)amino)-3,5-dihydro-4H-imidazol-4-one]	> 10000	> 10000	> 10000
COc1ccc(N(C)C2=N/C(=C\c3ccc4ncsc4c3)C(=O)N2)cc1 [Example 38, (Z)-5-(benzo[d]thiazol-6-ylmethylene)-2-((4-methoxyphenyl)(methyl)amino)-3,5-dihydro-4H-imidazol-4-one]	1000 to 10000	1000 to 10000	100 to 1000
CN(C1=N/C(=C\c2ccc3ncsc3c2)C(=O)N1)c1ccc2ncsc2c1 [Example 83, (Z)-2-(benzo[d]thiazol-6-yl(methyl)amino)-5-(benzo[d]thiazol-6-ylmethylene)-3,5-dihydro-4H-imidazol-4-one]	100 to 1000	> 10000	100 to 1000
O=C1NC(N(CCO)c2ccccc2)=N/C1=C\c1ccc2c(c1)OCO2 [Example 13, (Z)-5-(benzo[d][1,3]dioxol-5-ylmethylene)-2-((2-hydroxyethyl)(phenyl)amino)-3,5-dihydro-4H-imidazol-4-one]	> 10000	1000 to 10000	100 to 1000
O=C1NC(Nc2ccccc2)=N/C1=C\c1ccc2ncsc2c1 [Example 6, (Z)-5-(benzo[d]thiazol-6-ylmethylene)-2-(phenylamino)-3,5-dihydro-4H-imidazol-4-one]	100 to 1000	100 to 1000	< 100
CN(C1=N/C(=C\c2ccc3c(c2)OCO3)C(=O)N1)c1ccccc1 [Example 1, (Z)-5-(benzo[d][1,3]dioxol-5-ylmethylene)-2-(methyl(phenyl)amino)-3,5-dihydro-4H-imidazol-4-one]	> 10000	> 10000	100 to 1000
O=C1NC(Nc2ccc3nccnc3c2)=N/C1=C\c1ccc2ncsc2c1 [Example 82, (Z)-5-(benzo[d]thiazol-6-ylmethylene)-2-(quinoxalin-6-ylamino)-3,5-dihydro-4H-imidazol-4-one]	> 10000	100 to 1000	< 100
CN(C1=N/C(=C\c2ccc3c(c2)OCO3)C(=O)N1)c1ccc2ncsc2c1 [Example 70, (Z)-5-(benzo[d][1,3]dioxol-5-ylmethylene)-2-(benzo[d]thiazol-6-yl(methyl)amino)-3,5-dihydro-4H-imidazol-4-one]	> 10000	> 10000	100 to 1000
COc1ccccc1N(C)C1=N/C(=C\c2ccc3c(c2)OCO3)C(=O)N1 [Example 21, (Z)-5-(benzo[d][1,3]dioxol-5-ylmethylene)-2-((2-methoxyphenyl)(methyl)amino)-3,5-dihydro-4H-imidazol-4-one]	> 10000	> 10000	1000 to 10000
O=C1NC(Nc2ccccc2)=N/C1=C\c1ccc2occc2c1 [Example 52, (Z)-5-(benzofuran-5-ylmethylene)-2-(phenylamino)-3,5-dihydro-4H-imidazol-4-one]	> 10000	> 10000	> 10000
CN(C1=N/C(=C\c2ccc3ncsc3c2)C(=O)N1)c1ccccc1 [Example 7, (Z)-5-(benzo[d]thiazol-6-ylmethylene)-2-(methyl(phenyl)amino)-3,5-dihydro-4H-imidazol-4-one]	100 to 1000	1000 to 10000	100 to 1000
CN(C1=N/C(=C\c2ccc3c(c2)OCCO3)C(=O)N1)c1ccc2ncsc2c1 [Example 84, (Z)-2-(benzo[d]thiazol-6-yl(methyl)amino)-5-((2,3-dihydrobenzo[b][1,4]dioxin-6-yl)methylene)-3,5-dihydro-4H-imidazol-4-one]	> 10000	1000 to 10000	100 to 1000
O=C1NC(Nc2ccc3ncsc3c2)=N/C1=C\c1ccc2ncsc2c1 [Example 48, (Z)-2-(benzo[d]thiazol-6-ylamino)-5-(benzo[d]thiazol-6-ylmethylene)-3,5-dihydro-4H-imidazol-4-one]	100 to 1000	< 100	< 100
O=C1NC(Nc2ccc(Cl)cc2)=N/C1=C\c1ccc2ncsc2c1 [Example 40, (Z)-5-(benzo[d]thiazol-6-ylmethylene)-2-((4-chlorophenyl)amino)-3,5-dihydro-4H-imidazol-4-one]	100 to 1000	1000 to 10000	> 10000
CN(CC1CC1)C1=N/C(=C\c2ccc3c(c2)OCO3)C(=O)N1 [Example 11, (Z)-5-(benzo[d][1,3]dioxol-5-ylmethylene)-2-((cyclopropylmethyl)(methyl)amino)-3,5-dihydro-4H-imidazol-4-one]	> 10000	> 10000	100 to 1000
CC(C)NC1=N/C(=C\c2ccc3ncsc3c2)C(=O)N1C [Example 45, (Z)-5-(benzo[d]thiazol-6-ylmethylene)-2-(isopropylamino)-3-methyl-3,5-dihydro-4H-imidazol-4-one]	100 to 1000	1000 to 10000	1000 to 10000
